In patent US20230293428A1, “Drug delivery via contact lenses and similar ophthalmic devices” (Colorado School of Mines, priority 2021, published 2023):
Where a name gives a salt, the structure may show the parent alone.

Columns and labels:
[1] = In vitro timolol release from drug-loaded contact lenses into PBS, fitted to Fick's diffusion (perfect sink) model; type: physicochemical
Protocol: After drug loading, the lenses were removed from the timolol maleate solution and gently wiped with KimWipe to remove the excess solution remaining on the surface. Each lens was then placed in 3 mL of fresh PBS solution for in vitro drug release. The optical absorption spectra of the release media were measured by the same spectrophotometer used in Example 2. The concentration of the timolol in the release medium was determined by fitting the optical absorption spectra in the range of 260 to 340 nm with the calibration spectrum of timolol maleate using MATLAB's minimization of least square error method. The drug release profiles were fitted using a perfect sink model to determine drug diffusivity. By solving the Fick's law diffusion equation, the mass percent of the drug released as a function of time is given by […] To further investigate this effect, the diffusion coefficients of timolol in the lenses were calculated by fitting the release curves to Fick's diffusion equation as described above. […] As Table 5 illustrates, the diffusion coefficients of timolol from these lenses are about a third of the diffusion coefficient from control (blank/unloaded) lenses (circular data points in FIG. 5), which results in extension of release by about 10 hours.

[2] = Partition coefficient of timolol maleate between contact lens and loading solution; type: physicochemical
Protocol: Timolol maleate was dissolved in PBS to prepare a 1.5 mg/mL solution. Each hydrated contact lens (both blank and vitamin E-loaded) was placed in 3 mL of this solution for 7 days to load the drug in the lenses.
The partition coefficient K of the drug is defined as the ratio of the concentration of the drug in the lens to the concentration of the drug in the medium when equilibrium is reached during the drug loading process. […] The concentration in the lens after 7 days of loading can be determined by dividing the total mass of the drug in the lens by the volume, and the mass of the drug can be determined from the release data based on the assumption that 100% of the drug is released due to the large volume of release medium compared to the lens volume. Therefore, the partition coefficient K is calculated as
where Clens and Cloading are the concentration of the drug in the lens and the loading solution at equilibrium, respectively, Vrelease and Vlens are the volume of the release medium and the contact lens, respectively, and Crelease is the final concentration of the drug in the release medium.

[3] = lens with 0 wt % vitamin E (blank), solvent n/a
[4] = lens with 8.4 wt % vitamin E, loaded from pure EtOH
[5] = lens with 8.6 wt % vitamin E, loaded from 75:25 EtOH:H2O
[6] = lens with 9.3 wt % vitamin E, loaded from 85:15 EtOH:H2O
[7] = lens with 19.3 wt % vitamin E, loaded from pure EtOH
[8] = lens with 19.9 wt % vitamin E, loaded from 85:15 EtOH:H2O
[9] = lenses with vitamin E loads of 8 to 10 wt %

D, diffusion coefficient of timolol maleate from contact lens [1, 3]: 2.04 · 10^−13 ± 0 m^2/s | D, diffusion coefficient of timolol maleate from contact lens [1, 4]: (7.42 ± 1.49) · 10^−14 m^2/s | D, diffusion coefficient of timolol maleate from contact lens [1, 5]: (6.20 ± 0.329) · 10^−14 m^2/s | D, diffusion coefficient of timolol maleate from contact lens [1, 6]: 5.09 · 10^−14 ± 0 m^2/s | D, diffusion coefficient of timolol maleate from contact lens [1, 7]: (1.62 ± 0.219) · 10^−14 m^2/s | D, diffusion coefficient of timolol maleate from contact lens [1, 8]: (13.2 ± 0.936) · 10^−15 m^2/s | diffusion coefficient of timolol relative to control (blank/unloaded) lenses [1, 9]: about a third | extension of timolol release versus control (blank) lenses [1, 9]: about 10 hours | timolol release time ([1]; lenses with vitamin E loads of 8 to 10 wt %, made from different loading solutions): about 12 hours | duration of timolol release ([1]; lenses with vitamin E loads of 19 to 20 wt %, two different solutions): more than 70 hours | duration of release of timolol from the lens ([1]; vitamin E loads of about 10 wt %): about 10 hours | duration of release of timolol from the lens ([1]; vitamin E loads of about 20 wt %): about 70 hours | K, partition coefficient of timolol maleate in contact lens [2, 3]: 0.7125 ± 0.0168 | K, partition coefficient of timolol maleate in contact lens [2, 4]: 0.6050 ± 0.0171 | K, partition coefficient of timolol maleate in contact lens [2, 5]: 0.6757 ± 0.0152 | K, partition coefficient of timolol maleate in contact lens [2, 6]: 0.7969 ± 0.0242 | K, partition coefficient of timolol maleate in contact lens [2, 7]: 0.5739 ± 0.0069 | K, partition coefficient of timolol maleate in contact lens [2, 8]: 0.6108 ± 0.0489
Structure (SMILES): CC(C)(C)NC[C@H](O)COc1nsnc1N1CCOCC1 [timolol maleate, Timolol maleate]
